Results on three compounds are retold here after article PMC12951562, “SH2scan: Mapping SH2 Domain-Ligand Binding Selectivity for Inhibitors and Degraders” (Journal of Medicinal Chemistry, 2026).

What all share (experiment): biochemical
Common to all, as to format: binding

One assay concerns the target T1, PIK3R1(SH2dom.C-term.) (Homo sapiens, UniProt P27986).
T1 construct: SH2dom.C-term. denotes SH2 domain closest to C-terminus of protein; made in house; host or cells: HEK293 (transient transfection, unpurified extract)
The following applies: for remaining activity at 10 µM: read-out: percent of DMSO vehicle control.

The target of the next assay is T2, SHC1 (Homo sapiens, UniProt P29353).
T2 construct: made in house; host or cells: HEK293 (transient transfection), unpurified extract
T2 sequence (P29353 1-583): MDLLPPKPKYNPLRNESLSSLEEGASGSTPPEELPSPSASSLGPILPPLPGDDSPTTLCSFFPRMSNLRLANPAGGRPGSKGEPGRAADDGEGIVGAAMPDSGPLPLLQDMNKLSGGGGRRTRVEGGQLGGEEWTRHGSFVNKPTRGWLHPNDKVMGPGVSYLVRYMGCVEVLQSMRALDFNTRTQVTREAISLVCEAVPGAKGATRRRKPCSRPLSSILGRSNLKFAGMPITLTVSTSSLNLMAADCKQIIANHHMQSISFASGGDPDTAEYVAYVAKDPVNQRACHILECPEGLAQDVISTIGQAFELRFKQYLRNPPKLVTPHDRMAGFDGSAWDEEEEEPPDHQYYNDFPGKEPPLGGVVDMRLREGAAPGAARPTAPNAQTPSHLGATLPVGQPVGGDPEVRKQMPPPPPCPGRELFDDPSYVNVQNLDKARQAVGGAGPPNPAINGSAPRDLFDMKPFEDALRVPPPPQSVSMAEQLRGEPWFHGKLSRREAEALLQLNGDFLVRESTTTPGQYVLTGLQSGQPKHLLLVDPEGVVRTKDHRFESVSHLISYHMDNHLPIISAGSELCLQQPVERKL
The following applies: primary screen, 10 μM; for remaining activity at 10 µM: read-out: percent of DMSO vehicle control.

The target in a further assay is T3, PIK3R2(SH2dom.N-term.) (Homo sapiens, UniProt O00459).
T3 construct: SH2dom.N-term. denotes SH2 domain closest to N-terminus of protein; made in house; host or cells: HEK293 (transient transfection, unpurified extract)
T3 sequence (O00459 330-425 limits assumed): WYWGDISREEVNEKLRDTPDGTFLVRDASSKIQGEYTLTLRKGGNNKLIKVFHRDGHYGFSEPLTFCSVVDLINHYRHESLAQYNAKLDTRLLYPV
The following applies: primary screen, 10 μM; for remaining activity at 10 µM: read-out: percent of DMSO vehicle control.

The target of the next assay is T4, CBLB (Homo sapiens, UniProt Q13191).
T4 construct: the DNA-tagged SH2 domain concentrations used in this study were <0.1 nM; made in house; host or cells: HEK293 (transient transfection; unpurified extract)
T4 sequence (Q13191 241-343 limits assumed): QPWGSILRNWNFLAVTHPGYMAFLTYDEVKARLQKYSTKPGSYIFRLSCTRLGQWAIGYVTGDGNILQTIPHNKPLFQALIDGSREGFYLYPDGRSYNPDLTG
The note with it: primary screen, 10 μM.

A further assay has as its target T5, SHC2 (Homo sapiens, UniProt P98077).
T5 construct: made in house; host or cells: HEK293 (transient transfection), unpurified extract
T5 sequence (P98077 1-582): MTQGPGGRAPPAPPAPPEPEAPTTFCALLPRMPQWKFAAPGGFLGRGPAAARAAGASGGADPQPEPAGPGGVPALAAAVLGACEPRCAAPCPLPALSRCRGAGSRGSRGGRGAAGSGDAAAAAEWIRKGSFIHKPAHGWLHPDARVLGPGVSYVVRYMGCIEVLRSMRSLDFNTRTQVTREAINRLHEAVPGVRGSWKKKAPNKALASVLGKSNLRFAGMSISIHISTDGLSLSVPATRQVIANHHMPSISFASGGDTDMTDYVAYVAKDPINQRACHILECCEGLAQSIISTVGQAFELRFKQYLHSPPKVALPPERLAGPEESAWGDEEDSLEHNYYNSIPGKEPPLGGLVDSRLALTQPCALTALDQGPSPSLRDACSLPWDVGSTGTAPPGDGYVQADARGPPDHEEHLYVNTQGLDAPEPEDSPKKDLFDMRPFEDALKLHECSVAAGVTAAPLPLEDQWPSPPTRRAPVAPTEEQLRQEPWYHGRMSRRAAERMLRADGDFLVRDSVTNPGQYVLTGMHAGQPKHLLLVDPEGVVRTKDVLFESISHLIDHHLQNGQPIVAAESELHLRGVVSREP
The note with it: primary screen, 10 μM; for remaining activity at 10 µM: read-out: percent of DMSO vehicle control.

In another assay the target is T6, SOCS4 (Homo sapiens, UniProt Q8WXH5).
T6 construct: made in house; host or cells: HEK293 (transient transfection), unpurified extract
T6 sequence (Q8WXH5 1-440): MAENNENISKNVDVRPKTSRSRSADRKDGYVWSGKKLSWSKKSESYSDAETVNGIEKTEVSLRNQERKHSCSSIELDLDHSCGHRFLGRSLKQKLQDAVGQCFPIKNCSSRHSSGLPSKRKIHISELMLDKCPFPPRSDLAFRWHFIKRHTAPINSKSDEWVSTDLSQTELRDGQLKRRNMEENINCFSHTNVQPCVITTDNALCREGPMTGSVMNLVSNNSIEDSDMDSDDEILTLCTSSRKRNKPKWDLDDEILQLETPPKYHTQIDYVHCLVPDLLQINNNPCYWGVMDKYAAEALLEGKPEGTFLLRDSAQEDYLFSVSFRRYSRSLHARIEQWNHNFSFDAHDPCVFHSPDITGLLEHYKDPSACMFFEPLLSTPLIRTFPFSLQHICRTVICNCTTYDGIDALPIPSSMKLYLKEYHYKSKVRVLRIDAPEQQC
The following applies: for Kd: dose-response, read-out: KD; for remaining activity at 10 µM: read-out: percent of DMSO vehicle control.

The next assay concerns the target T7, SH3BP2 (Homo sapiens, UniProt P78314).
T7 construct: made in house; host or cells: HEK293 (transient transfection), unpurified extract
T7 sequence (P78314 1-561): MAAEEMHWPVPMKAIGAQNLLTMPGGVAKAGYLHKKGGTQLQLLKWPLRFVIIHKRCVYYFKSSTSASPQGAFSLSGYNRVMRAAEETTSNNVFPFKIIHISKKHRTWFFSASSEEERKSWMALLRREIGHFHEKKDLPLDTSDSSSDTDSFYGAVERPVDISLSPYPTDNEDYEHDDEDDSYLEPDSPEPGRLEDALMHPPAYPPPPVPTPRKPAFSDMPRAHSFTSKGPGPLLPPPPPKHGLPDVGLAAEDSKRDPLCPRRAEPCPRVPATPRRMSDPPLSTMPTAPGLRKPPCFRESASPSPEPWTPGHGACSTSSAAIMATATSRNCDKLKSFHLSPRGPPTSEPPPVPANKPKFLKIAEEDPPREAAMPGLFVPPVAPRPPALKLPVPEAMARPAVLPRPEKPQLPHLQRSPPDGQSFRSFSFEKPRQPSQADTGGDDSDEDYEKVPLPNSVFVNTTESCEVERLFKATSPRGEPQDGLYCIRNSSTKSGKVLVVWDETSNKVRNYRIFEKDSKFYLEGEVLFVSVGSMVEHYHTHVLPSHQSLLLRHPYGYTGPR
The note with it: primary screen, 10 μM; for remaining activity at 10 µM: read-out: percent of DMSO vehicle control.

The target of another assay is T8, CSK (Homo sapiens, UniProt P41240).
T8 construct: the DNA-tagged SH2 domain concentrations used in this study were <0.1 nM; made in house; host or cells: HEK293 (transient transfection; unpurified extract)
T8 sequence (P41240 82-171 limits assumed): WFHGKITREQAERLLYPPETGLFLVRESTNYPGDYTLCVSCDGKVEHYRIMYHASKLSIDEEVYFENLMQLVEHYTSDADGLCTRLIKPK
The following applies: primary screen, 10 μM.

The target of another assay is T9, LNK (SH2B3) (Homo sapiens, UniProt Q9UQQ2).
T9 construct: the DNA-tagged SH2 domain concentrations used in this study were <0.1 nM; made in house; host or cells: HEK293 (transient transfection, unpurified extract)
T9 sequence (Q9UQQ2 364-462 limits assumed): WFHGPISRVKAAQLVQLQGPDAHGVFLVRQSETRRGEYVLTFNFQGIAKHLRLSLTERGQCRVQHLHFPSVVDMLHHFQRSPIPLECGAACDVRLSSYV
The following applies: primary screen, 10 μM; for remaining activity at 10 µM: read-out: percent of DMSO vehicle control.

Non-standard residues stand in square brackets, D forms with d. Residues, ends and D or L forms follow the SMILES beside them. pY = N[C@@H](Cc1ccc(OP(=O)(O)O)cc1)C(=O)O

T1 sequence (P27986 624-718 limits assumed): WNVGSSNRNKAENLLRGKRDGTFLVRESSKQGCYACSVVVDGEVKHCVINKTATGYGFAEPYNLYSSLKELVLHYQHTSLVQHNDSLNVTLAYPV

For the compound `CC[C@H](C)[C@H](NC(=O)[C@H](CCC(=O)O)NC(=O)[C@H](CCC(=O)O)NC(=O)[C@H](Cc1ccc(OP(=O)(O)O)cc1)NC(C)=O)C(=O)N[C@@H](CCC(=O)O)C(N)=O` [Ac-pYEEIE-NH2] (Ac-[pY]EEIE-NH2), the “percent of DMSO vehicle control” value on PIK3R1(SH2dom.C-term.) (primary screen, 10 μM) is 35.8±9.3%; on SHC1 it was 105.0%; at PIK3R2(SH2dom.N-term.), 74.1%; on CBLB, 116.1%; at SHC2 it was 138.0%; on SOCS4 (primary screen, 10 μM) it was 32.2%. The “percent of DMSO vehicle control” value is 90.0±2.1% at SH3BP2, 106.4% at CSK and 72.0% at LNK (SH2B3).
What is called Kd is the free concentration of one partner at which half of the binding sites on the other are occupied at equilibrium, for simple one-to-one binding. Consider `O=C(COc1ccc2cc(C(=O)Nc3ccccc3)ccc2c1)NCc1ccc(OP(=O)(O)O)c(OP(=O)(O)O)c1` [Stafib-1], for which the remaining activity at 10 µM on PIK3R1(SH2dom.C-term.) (primary screen, 10 μM) was determined as 85.3 ± 16.8%; on SHC1 it was 67.3 ± 22.1%; at PIK3R2(SH2dom.N-term.), 97.2 ± 21.5%; on SHC2, 83.4 ± 24.4%; on SOCS4 (primary screen, 10 μM), 25.5 ± 12.4%; at SH3BP2, 86 ± 3.2%. The remaining activity at 10 µM at LNK (SH2B3) came to 94.8 ± 14.4%. The “percent of DMSO vehicle control” value at CBLB is on record as 78.9±15.9%; at CSK, 111.7±5.5%. For the same compound, the Kd at SOCS4 was determined as 3.9 ± 0.87 µM.
As to `CC(C)(C)[C@H](NC(=O)/C=C/c1ccc(OP(=O)(O)O)cc1)C(=O)N1CCC[C@H]1C(=O)N(c1ccccc1)c1ccc(I)cc1` [STAT6-IN-3], the Kd was found to be 3 ± 0.73 µM on PIK3R1(SH2dom.C-term.) (dose-response, read-out: KD) and 0.01 µM at SOCS4. Further, the remaining activity at 10 µM on PIK3R1(SH2dom.C-term.) (primary screen, 10 μM) came to 32.6 ± 4.4%; at SHC1, 62.5 ± 13.9%; at PIK3R2(SH2dom.N-term.) it was 88.4 ± 18.2%; at SHC2, 85.2 ± 11.3%; on SOCS4 (primary screen, 10 μM), 0%; on SH3BP2, 92.8 ± 2.7%. The remaining activity at 10 µM on LNK (SH2B3) turned out to be 62 ± 5.7%. Further, the “percent of DMSO vehicle control” value was 69.0±7.6% on CBLB and 65.2±5.7% on CSK.
